Measurements: ChEMBL document CHEMBL5523718, “Design, synthesis, molecular modeling, in vitro and in vivo biological evaluation of potent anthranilamide derivatives as dual P-glycoprotein and CYP3A4 inhibitors” (Eur J Med Chem, 2024)
pIC50: −log10 of the molar value. Converted amounts (≈) assume the structure as drawn.

Tests used:
[1] = C0 in CD-1 mouse at 5 mg/kg, iv measured upto 8 hrs by LC-MS/MS analysis; assay type: ADME, organism-based; conditions: in vivo
[2] = Apparent permeability of compound across basolateral to apical side in human Caco-2 cells; assay type: ADME, cell-based
[3] = Equilibrium solubility of compound in PBS at pH 7.4; assay type: physicochemical; conditions: PBS
P-gp (ABCB1) [4] = target: T1, P-gp (ABCB1) (Homo sapiens, UniProt P08183); assay: Inhibition of P-gp in human Caco-2 cells at 10 uM in presence of paclitaxel relative to control; assay type: cell-based; conditions: Caco-2, probe paclitaxel
P-gp (ABCB1) [5] = target: T1, P-gp (ABCB1); assay: Inhibition of P-gp in human Caco-2 cells at 5 uM in presence of paclitaxel relative to control; assay type: cell-based; conditions: Caco-2, probe paclitaxel
P-gp (ABCB1) [6] = target: T1, P-gp (ABCB1); assay: Inhibition of P-gp in human Caco-2 cells at 0.01 uM in presence of paclitaxel relative to control; assay type: cell-based; conditions: Caco-2, probe paclitaxel
[7] = target: T2, ATP-dependent translocase ABCB1 (Homo sapiens, UniProt P08183); assay: Inhibition of P-gp in human Caco-2 cells in presence of paclitaxel; assay type: cell-based
[8] = Inhibition of CYP3A4 in rat liver using luciferin-IPA as substrate microsome preincubated with compound for 10 mins followed by NADPH addition and measured after 5 mins; assay type: ADME, microsomes
[9] = Metabolic stability in mouse liver microsome assessed as half life; assay type: ADME; conditions: liver microsomes
[10] = Metabolic stability in human liver microsome assessed as intrinsic clearance; assay type: ADME; conditions: microsomes
[11] = Metabolic stability in mouse liver microsome assessed as intrinsic clearance; assay type: ADME; conditions: microsomes
[12] = target: T2, ATP-dependent translocase ABCB1; assay: Inhibition of P-gp (unknown origin) ATPase activity
Cytochrome P450 2C8 = target: T3, Cytochrome P450 2C8 (Homo sapiens, UniProt P10632); assay: Inhibition of CYP2C8 (unknown origin) using Amodiaquine as substrate; assay type: ADME
T3 sequence (P10632 whole entry): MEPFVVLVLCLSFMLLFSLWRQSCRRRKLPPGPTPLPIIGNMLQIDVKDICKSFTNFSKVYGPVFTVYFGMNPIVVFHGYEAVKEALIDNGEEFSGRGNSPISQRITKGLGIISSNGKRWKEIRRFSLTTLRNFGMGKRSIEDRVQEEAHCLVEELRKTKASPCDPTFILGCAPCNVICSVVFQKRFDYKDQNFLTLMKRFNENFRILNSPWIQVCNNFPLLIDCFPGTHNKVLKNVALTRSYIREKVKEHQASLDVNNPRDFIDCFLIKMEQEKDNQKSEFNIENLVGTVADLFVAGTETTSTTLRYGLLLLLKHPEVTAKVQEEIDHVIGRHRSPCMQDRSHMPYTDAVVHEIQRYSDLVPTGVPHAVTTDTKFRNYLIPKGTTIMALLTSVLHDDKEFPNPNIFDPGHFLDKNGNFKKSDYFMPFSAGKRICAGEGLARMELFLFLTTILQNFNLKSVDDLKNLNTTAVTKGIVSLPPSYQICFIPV

[13] = Tlast in CD-1 mouse at 5 mg/kg, iv measured upto 8 hrs by LC-MS/MS analysis; assay type: ADME, organism-based; conditions: in vivo

T1 sequence (P08183 whole entry): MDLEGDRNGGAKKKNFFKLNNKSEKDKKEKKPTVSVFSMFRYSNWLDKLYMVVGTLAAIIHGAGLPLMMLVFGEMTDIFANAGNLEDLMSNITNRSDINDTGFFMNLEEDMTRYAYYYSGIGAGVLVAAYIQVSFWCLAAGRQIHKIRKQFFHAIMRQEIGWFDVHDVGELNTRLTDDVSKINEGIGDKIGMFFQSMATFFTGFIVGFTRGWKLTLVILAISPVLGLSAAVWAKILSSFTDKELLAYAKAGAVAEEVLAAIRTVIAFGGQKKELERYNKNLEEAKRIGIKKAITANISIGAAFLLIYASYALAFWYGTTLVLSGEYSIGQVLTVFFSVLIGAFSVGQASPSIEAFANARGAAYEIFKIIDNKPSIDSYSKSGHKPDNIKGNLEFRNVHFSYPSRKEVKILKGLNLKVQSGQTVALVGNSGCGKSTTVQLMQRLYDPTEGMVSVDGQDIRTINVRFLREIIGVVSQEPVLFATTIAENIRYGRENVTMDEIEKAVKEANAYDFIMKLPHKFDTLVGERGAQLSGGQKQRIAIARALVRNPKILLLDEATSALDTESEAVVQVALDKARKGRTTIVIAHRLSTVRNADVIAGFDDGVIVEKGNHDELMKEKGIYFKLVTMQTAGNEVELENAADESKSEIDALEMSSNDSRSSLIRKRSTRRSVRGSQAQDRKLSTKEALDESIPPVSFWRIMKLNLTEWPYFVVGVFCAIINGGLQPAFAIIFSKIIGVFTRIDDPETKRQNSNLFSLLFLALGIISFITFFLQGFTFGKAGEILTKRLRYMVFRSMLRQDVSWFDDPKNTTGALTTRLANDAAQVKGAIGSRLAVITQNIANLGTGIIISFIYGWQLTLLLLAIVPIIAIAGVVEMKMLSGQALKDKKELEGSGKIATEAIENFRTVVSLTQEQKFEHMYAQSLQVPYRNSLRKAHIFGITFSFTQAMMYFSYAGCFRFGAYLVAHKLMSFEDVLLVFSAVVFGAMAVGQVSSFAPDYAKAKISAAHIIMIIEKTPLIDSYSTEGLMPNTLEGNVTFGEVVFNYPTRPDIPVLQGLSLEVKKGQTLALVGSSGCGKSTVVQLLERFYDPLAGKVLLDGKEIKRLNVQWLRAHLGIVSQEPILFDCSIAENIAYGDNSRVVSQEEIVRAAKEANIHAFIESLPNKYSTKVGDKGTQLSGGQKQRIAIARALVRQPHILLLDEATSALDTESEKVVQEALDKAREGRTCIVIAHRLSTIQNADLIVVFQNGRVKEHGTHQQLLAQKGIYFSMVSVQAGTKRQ
T2 sequence (P08183 whole entry): as above

Question: With COc1cc(NC(=O)c2cc(=O)c3ccccc3o2)c(C(=O)Nc2ccc(C3CCN(Cc4cccc(-n5ccnc5)c4)CC3)cc2)cc1OC as the compound, how does the C0 at 8 h [1] read?
Answer: 6540 ng/mL

Question: What about the Papp B→A [2] of the same compound?
Answer: < 0.08 ×10⁻⁶ cm/s

Question: And the solubility thermodynamic [3]?
Answer: 0.57 µM (≈ 0.39 µg/mL)

Question: What about the inhibition at 10 µM (P-gp (ABCB1) [4]) of the same compound?
Answer: 99%

Question: And the inhibition at 5 µM (P-gp (ABCB1) [5])?
Answer: 99%

Question: And the inhibition at 0.01 µM (P-gp (ABCB1) [6])?
Answer: 54%

Question: And the pIC50 [7]?
Answer: 8.05

Question: And the pIC50 [8]?
Answer: 6.53

Question: What about the half-life [9] of the same compound?
Answer: 37 min

Question: And the CLH [10]?
Answer: 300 µL/min/mg

Question: What about the CLH [11] of the same compound?
Answer: 38 µL/min/mg

Question: What about the pIC50 [12] of the same compound?
Answer: 7.68

Question: And the pIC50 (Cytochrome P450 2C8)?
Answer: 4.96

Question: And the Tlast [13]?
Answer: 4.8 h
